In brackets after ≈: the same amount, converted by molar mass. Activity calls are given as the source filed them. The calls are words filed in the database; no cut-off is given here.
How the values were obtained:
[1] = molecular target: DNA topoisomerase 2-alpha (Homo sapiens) (UniProt P11388); test: Inhibition of human DNA topoisomerase 2 assessed as bacteriophage P4 DNA unknotting at 100 uM after 30 mins by agarose gel electrophoresis
[2] = molecular target: DNA topoisomerase 2-alpha (Homo sapiens) (UniProt P11388); test: Inhibition of DNA topoisomerase 2 in human KB cells assessed as enzyme-[methyl-3H]thymidine-labeled DNA complex formation at 10 uM after 1 hr by K-SDS precipitation assay; assay type: cell-based
[3] = tested on: KB; test: Cytotoxicity against human KB cells assessed as reduction in cell number after 3 days by crystal violet staining; assay type: functional; details: 72 h, read-out: ED50 (the source's name)
[4] = Inhibition of microtubule polymerization
[5] = molecular target: DNA topoisomerase 2-alpha (Homo sapiens) (UniProt P11388); test: Inhibition of DNA topoisomerase 2 in human KB cells assessed as enzyme-[methyl-3H]thymidine-labeled DNA complex formation at 5 uM after 1 hr by K-SDS precipitation assay; assay type: cell-based
[6] = molecular target: DNA topoisomerase 2-alpha (Homo sapiens) (UniProt P11388); test: Inhibition of human DNA topoisomerase 2 assessed as bacteriophage P4 DNA unknotting after 30 mins by agarose gel electrophoresis

Chain of DNA topoisomerase 2-alpha (Homo sapiens) (P11388 whole entry): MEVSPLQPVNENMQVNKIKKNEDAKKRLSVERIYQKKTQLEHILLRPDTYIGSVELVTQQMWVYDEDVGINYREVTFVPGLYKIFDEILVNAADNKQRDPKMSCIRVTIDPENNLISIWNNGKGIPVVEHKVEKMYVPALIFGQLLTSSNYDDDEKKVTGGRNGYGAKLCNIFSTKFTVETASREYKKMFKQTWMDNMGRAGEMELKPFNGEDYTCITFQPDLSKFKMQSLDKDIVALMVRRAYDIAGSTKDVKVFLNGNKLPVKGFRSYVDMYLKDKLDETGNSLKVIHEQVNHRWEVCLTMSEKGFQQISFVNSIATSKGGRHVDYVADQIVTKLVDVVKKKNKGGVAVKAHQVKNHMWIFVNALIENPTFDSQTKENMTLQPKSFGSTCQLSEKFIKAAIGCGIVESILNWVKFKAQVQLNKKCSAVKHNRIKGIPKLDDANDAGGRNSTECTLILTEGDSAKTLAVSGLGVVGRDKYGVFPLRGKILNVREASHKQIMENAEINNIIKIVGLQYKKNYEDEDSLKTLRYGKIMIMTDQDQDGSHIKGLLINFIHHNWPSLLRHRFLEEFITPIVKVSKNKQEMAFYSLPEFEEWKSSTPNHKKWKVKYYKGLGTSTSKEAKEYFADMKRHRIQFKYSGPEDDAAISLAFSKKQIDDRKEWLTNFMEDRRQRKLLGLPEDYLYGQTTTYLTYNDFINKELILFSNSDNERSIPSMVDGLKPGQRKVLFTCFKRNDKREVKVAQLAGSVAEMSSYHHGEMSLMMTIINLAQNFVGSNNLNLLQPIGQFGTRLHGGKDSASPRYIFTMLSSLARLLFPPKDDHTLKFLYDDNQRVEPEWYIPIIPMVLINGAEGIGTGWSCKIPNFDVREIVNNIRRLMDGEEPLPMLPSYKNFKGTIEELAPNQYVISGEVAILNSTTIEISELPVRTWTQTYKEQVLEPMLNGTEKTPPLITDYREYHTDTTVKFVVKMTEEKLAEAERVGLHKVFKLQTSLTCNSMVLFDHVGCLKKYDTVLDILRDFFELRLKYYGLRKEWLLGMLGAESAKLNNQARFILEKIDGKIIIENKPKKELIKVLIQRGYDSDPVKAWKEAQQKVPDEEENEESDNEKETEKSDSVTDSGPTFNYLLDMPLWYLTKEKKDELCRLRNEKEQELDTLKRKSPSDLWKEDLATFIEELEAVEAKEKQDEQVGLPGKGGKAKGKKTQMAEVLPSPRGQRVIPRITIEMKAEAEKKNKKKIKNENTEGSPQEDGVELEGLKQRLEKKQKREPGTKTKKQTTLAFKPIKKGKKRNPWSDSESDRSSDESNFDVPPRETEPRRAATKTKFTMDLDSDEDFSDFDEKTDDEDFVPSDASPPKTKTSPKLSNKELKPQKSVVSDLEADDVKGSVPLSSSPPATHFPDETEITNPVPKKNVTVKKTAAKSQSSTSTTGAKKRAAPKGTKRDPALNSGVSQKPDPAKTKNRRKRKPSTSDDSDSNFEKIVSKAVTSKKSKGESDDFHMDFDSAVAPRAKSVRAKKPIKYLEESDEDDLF

Compound | inhibition [1] [%] | inhibition [2] [%] | EC50 [3] [mg/L] | Activity [4] | inhibition [5] [%] | ID50 [6] [µM]
COCCN[C@@H]1c2cc3c(cc2[C@@H](c2cc(OC)c(O)c(OC)c2)[C@H]2C(=O)OC[C@@H]21)OCO3 | 75 | 111 | > 4 |  |  | 
COc1cc([C@@H]2c3cc4c(cc3[C@H](O)[C@H]3COC(=O)[C@H]23)OCO4)cc(OC)c1OC |  |  |  | inactive |  | 
COc1cc([C@@H]2c3cc4c(cc3[C@H](NCCO)[C@H]3COC(=O)[C@H]23)OCO4)cc(OC)c1O |  | 0 | > 1 |  |  | 
COc1cc([C@@H]2c3cc4c(cc3[C@@H](NCCCO)[C@H]3COC(=O)[C@H]23)OCO4)cc(OC)c1O | 50 | 89.2 | 4 (≈ 8.74 µM) |  |  | 
CCCN[C@@H]1c2cc3c(cc2[C@@H](c2cc(OC)c(O)c(OC)c2)[C@H]2C(=O)OC[C@@H]21)OCO3 | 50 | 69.7 | < 0.4 |  |  | 
C=CCN[C@@H]1c2cc3c(cc2[C@@H](c2cc(OC)c(O)c(OC)c2)[C@H]2C(=O)OC[C@@H]21)OCO3 | 75 | 84.2 | 3.4 (≈ 7.74 µM) |  |  | 
COc1cc([C@@H]2c3cc4c(cc3[C@@H](O)[C@H]3COC(=O)[C@H]23)OCO4)cc(OC)c1O [4'-DEMETHYLEPIPODOPHYLLOTOXIN] | 50 | 42.2 | 0.34 (≈ 0.849 µM) |  |  | 
COc1cc([C@@H]2c3cc4c(cc3[C@@H](N)[C@H]3COC(=O)[C@H]23)OCO4)cc(OC)c1O | 50 | 36.4 | 0.19 (≈ 0.476 µM) |  |  | 
COc1cc([C@@H]2c3cc4c(cc3[C@@H](O[C@@H]3O[C@@H]5CO[C@@H](C)O[C@H]5[C@H](O)[C@H]3O)[C@H]3COC(=O)[C@H]23)OCO4)cc(OC)c1O [ETOPOSIDE] | > 75 | 100 | 0.16 (≈ 0.272 µM) |  | 56.2 | 50
COc1cc([C@@H]2c3cc4c(cc3[C@H](O)[C@H]3COC(=O)[C@H]23)OCO4)cc(OC)c1O | 25 | 3.3 | 0.045 (≈ 0.112 µM) |  |  | 
COc1cc([C@@H]2c3cc4c(cc3[C@H](N)[C@H]3COC(=O)[C@H]23)OCO4)cc(OC)c1O | 25 | 8 | 0.25 (≈ 0.626 µM) |  |  | 
COc1cc([C@@H]2c3cc4c(cc3[C@@H](NC(C)CO)[C@H]3COC(=O)[C@H]23)OCO4)cc(OC)c1O (stereo not given in full) | > 75 |  | 2.3 (≈ 5.03 µM) |  | 89.3 | 25
COc1cc([C@@H]2c3cc4c(cc3[C@@H](NCC(C)O)[C@H]3COC(=O)[C@H]23)OCO4)cc(OC)c1O (stereo not given in full) | > 75 |  | 3.6 (≈ 7.87 µM) |  | 83.9 | 25
COc1cc([C@@H]2c3cc4c(cc3[C@@H](NCCO)[C@H]3COC(=O)[C@H]23)OCO4)cc(OC)c1O | > 75 | 121 | 1.6 (≈ 3.61 µM) |  | 70.1 | 50
